Measurements taken from patent US20260306633A1, “A COMBINATION THERAPY FOR CANCER TREATMENT” (Purdue Research Foundation, priority 2023, published 2026).
Entries after “also recorded” stand apart in the source; their conditions may differ. Where two headings read alike, the source gives them in different places.

Assays:
human TNBC BT-549 cells = experiment: Fluorescence microscopy (Hoechst 33258) of cell morphology / cell death pathway; type: cell-based; conditions: paclitaxel 50 nM, unirradiated (FIG. 18I)
[1] = test system: human gastric adenocarcinoma AGS cell line; conditions: another study; cited from earlier work
[2] = test system: human triple-negative breast cancer (TNBC) BT-549 cells; experiment: Transmission electron microscopy of cell ultrastructure; type: cell-based; conditions: paclitaxel 50 nM
Procedure: Irregularly shaped nuclear membrane is apparent in treated cells in the dark or in the presence of light. Light dose in 30 seconds=0.48 J cm^−2. Concentrations: PSs=50 nM; paclitaxel=50 nM; and, fluororuracil=25 μM.
Cells were cultured to confluence in a petri dish ([…] in diameter), treated for 24 hrs with 500 nM of PS, then irradiated for 2 minutes as above. After 12 photosensitization 24 hours later, cells were scraped gently in the dark, fixed in 2.5% glutaraldehyde in 0.1M [COMPOUND LEFT OUT] buffer, then post-fixed with 1% osmium tetroxide (containing 0.8% [COMPOUND LEFT OUT], treated with 2% aqueous uranyl acetate, and subsequently dehydrated in gradient concentrations (50-100%) of varying ethanol:water mixtures. The resulting pellets were embedded in resin and consequently cut with an ultramicrotome to a 70 nm thickness, then viewed using Tecnai T20 transmission electron microscope.
Transmission electron micrographs of TNBC cells clearly differentiated distinct cellular compartments, in particular, of nuclear components and plasma membrane during treatment as shown in FIG. 19. A typical normal organelle morphology with smooth-contoured cellular plasma membrane is depicted in TNBC cells irradiated with light without treatment with PS nor chemotherapeutic agent (FIG. 19A). […]

TNBC BT-549 cells = experiment: Cell survival / cell inhibition (MTT cell cytotoxicity assay) after 24 h treatment with photosensitizer and/or chemotherapeutic agent, dark or light-irradiated; type: cell-based, human; conditions: for viability at 0.1 µM / viability at 0.01 µM: paclitaxel; for viability at 0.1 µM: high end of 10-100 nM, read-out: cell survival, drug only (end of decrease); for viability at 0.01 µM: low end of 10-100 nM, read-out: cell survival, drug only (start of decrease)
[3] = Homo sapiens, BT-549, 24 h, dark
[4] = Homo sapiens, BT-549, 24 h, light

SMILES: CC(=O)O[C@H]1C(=O)[C@@]2(C)[C@H]([C@H](OC(=O)c3ccccc3)[C@]3(O)C[C@H](OC(=O)[C@H](O)[C@@H](NC(=O)c4ccccc4)c4ccccc4)C(C)=C1C3(C)C)[C@]1(OC(C)=O)CO[C@@H]1C[C@@H]2O [paclitaxel, reference compound]
- cell morphology, paclitaxel-treated (human TNBC BT-549 cells): shrunk cells and chromatin fragmentation are evident; also recorded: Shrunk cells and chromatin condensation are evident
- cell death modes triggered [1]: apoptosis, autophagy, and mitotic catastrophe were triggered
- ultrastructure, paclitaxel in the dark ([2]; dark (FIG. 19C)): Irregularly shaped nuclear envelope; also recorded: loss of nuclear circularity and formation of chromatin condensation
- ultrastructure, paclitaxel irradiated ([2]; light 0.48 J/cm^2 (FIG. 19E)): smaller nuclei in multi-nucleated cells indicating chromosomal condensation; also recorded: split and fragmented with many atypical vesicular components in the cytosolic compartment
- viability at 0.05 µM (TNBC BT-549 cells; Homo sapiens, BT-549, 24 h, paclitaxel 50 nM, dark, read-out: cell survival, drug only): 57%
- viability at 0.1 µM (TNBC BT-549 cells; [3]): 49%
- viability at 0.01 µM (TNBC BT-549 cells; [3]): 64%
- viability at 0.1 µM (TNBC BT-549 cells; [4]): 52%
- viability at 0.01 µM (TNBC BT-549 cells; [4]): 66%
- average increase in cell survival upon light irradiation compared to unirradiated cells, drug only (TNBC BT-549 cells; drug alone, light vs dark): 4%
